We go through 45 molecules from patent publication US10239835B2, “N-alkylaryl-5-oxyaryl-octahydro-cyclopenta[c]pyrrole negative allosteric modulators of NR2B” (Luc Therapeutics, Inc., priority 2014, dated 2019).

Test [1] has as its target HEK293 cells expressing NR1/NR2B (Homo sapiens (Human), UniProt Q13224). The test is described as follows: NR2B NAM Assay (FDSS Ca2+ influx cell assay). The class given is cell-based. To be noted: Ca2+ influx inhibition relative to MK801; 3 μM glutamate, 3 μM glycine, 1 mM Ca2+; read-out: NR2B NAM IC50. On the procedure: (§1) Cell Culture and plating: HEK293 cells expressing NR1/NR2B (Chantest, Cleveland, Ohio) were grown to 70-80% confluency as an adherent monolayer in standard tissue culture flasks at 37° C., 5% CO2 per supplier's instructions. NR2B expression was induced by incubation with 0.3-0.4 μg/ml tetracycline in the presence of 4 mM ARL-15896 for 18-24 hours under the same growth conditions, then transferred to 30° C. for another 3-5 hours.
(§2) After induction, cell culture medium was removed and cells were rinsed once with Ca^2+ and Mg^2+-free Dulbecco's phosphate buffered saline. Cells were then removed from the flask using TrypLE™ Express (Life Technologies) according to the manufacturer's instructions and collected to 50 ml centrifuge tubes. Following two washes in Ca^2+/Mg^2+-free HBSS with 20 mM HEPES (HHnoCa), cells were counted and viability assessed using trypan blue. To load cells with Ca^2+-sensitive dye, they were resuspended in fluo-8 plus Component B (AAT Bioquest Products) diluted in HHnoCa and incubated 15 minutes at 37° C., followed by 30 minutes at room temp (in dark). Cells were then washed and resuspended in HHnoCa to remove extracellular dye and plated in 384-well plates (Falcon, uncoated) at 20,000-30,000 cells/well in a final volume of 25 μl/well.
(§3) FDSS Assay: To each well of the plate, 10 μL test compound, control (MK801) or HHnoCa buffer was added at different concentrations to yield final concentrations of 0.001, 0.003, 0.010, 0.030, 0.100, 0.300, 1.000, 3.000, 10.000, or 30.000 uM final concentration of DMSO of 0.1%. Following 10 minutes pre-incubation in the dark, plates are loaded onto the Hamamatsu FDSS 6000. After collecting baseline fluorescence images, 3 μM glutamate, 3 μM glycine, and 1 mM Ca^2+ in HHnoCa buffer is added to each well, and Ca^2+ is recorded for 3 minutes. Data were processed by computing ratio of fluorescence at the end of data collection to baseline fluorescence to assess degree of Ca^2+ influx inhibition relative to that observed in MK801.
(§4) Table 8 below provides activity of each compound according to the legend that “++++” indicates inhibition at a concentration<100 nM; “+++” indicates inhibition at a concentration between 100 nM and 1 μM of the disclosed compound; “++” indicates inhibition at a concentration of from 1 μM to 10 μM; and “+” indicates inhibition at a concentration>10 μM.

Test [2] has as its target HEK293 cells expressing NR1/NR2B (Homo sapiens (Human), UniProt Q05586+Q13224). Description: NR2B NAM Assay (FDSS Ca2+ influx cell assay). The class given is cell-based. Conditions: NR2B NAM assay, class of inhibitory concentration; read-out: Activity Category. On the procedure:
as §1, §2, §3, §4

HEK293 cells expressing NR1/NR2B (Homo sapiens (Human), UniProt Q05586+Q13224), sequence (Q13224 27-1484, other chains not shown): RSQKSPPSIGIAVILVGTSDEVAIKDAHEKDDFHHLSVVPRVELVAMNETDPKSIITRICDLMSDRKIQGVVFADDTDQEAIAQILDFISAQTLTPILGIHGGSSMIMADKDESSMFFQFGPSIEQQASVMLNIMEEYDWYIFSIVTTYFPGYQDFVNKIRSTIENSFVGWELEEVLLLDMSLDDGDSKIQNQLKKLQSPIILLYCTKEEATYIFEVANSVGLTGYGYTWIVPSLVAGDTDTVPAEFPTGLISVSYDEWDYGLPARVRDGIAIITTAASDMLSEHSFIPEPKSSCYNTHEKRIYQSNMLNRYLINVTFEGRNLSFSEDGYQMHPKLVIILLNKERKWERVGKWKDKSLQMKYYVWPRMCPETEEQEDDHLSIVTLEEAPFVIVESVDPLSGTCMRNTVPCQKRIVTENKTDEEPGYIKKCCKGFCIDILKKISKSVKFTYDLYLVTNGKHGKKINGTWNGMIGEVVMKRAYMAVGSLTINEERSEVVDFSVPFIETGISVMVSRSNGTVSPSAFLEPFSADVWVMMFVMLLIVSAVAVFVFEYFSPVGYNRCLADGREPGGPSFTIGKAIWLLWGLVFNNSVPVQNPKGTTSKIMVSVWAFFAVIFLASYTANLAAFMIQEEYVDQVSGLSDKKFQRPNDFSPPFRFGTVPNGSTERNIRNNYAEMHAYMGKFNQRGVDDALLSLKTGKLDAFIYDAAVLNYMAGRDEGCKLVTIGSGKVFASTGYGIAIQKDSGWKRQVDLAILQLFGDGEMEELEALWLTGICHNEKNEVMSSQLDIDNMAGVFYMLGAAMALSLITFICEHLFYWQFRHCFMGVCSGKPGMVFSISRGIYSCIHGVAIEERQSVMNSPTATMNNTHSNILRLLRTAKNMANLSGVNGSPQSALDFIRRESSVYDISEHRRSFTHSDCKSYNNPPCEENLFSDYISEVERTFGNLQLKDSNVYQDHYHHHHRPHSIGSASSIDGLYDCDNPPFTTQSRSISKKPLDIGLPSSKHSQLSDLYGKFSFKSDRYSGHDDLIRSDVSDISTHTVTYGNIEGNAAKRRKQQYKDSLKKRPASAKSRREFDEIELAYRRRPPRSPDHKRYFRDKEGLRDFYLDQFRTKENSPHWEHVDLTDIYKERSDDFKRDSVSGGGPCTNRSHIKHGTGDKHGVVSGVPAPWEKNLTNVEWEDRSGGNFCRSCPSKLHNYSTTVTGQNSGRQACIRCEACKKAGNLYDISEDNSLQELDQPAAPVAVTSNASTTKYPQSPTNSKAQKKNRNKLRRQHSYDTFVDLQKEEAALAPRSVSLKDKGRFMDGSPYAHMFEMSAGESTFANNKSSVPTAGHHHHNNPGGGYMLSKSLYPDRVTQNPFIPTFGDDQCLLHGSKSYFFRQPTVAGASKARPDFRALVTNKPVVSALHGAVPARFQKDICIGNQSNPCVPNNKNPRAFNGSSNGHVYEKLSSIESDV
HEK293 cells expressing NR1/NR2B (Homo sapiens (Human), UniProt Q13224), sequence (Q13224 27-1484, other chains not shown): as above

With `O=C(CN1C[C@H]2C[C@H](Oc3ccc(F)cc3)C[C@H]2C1)c1ccc(O)cc1`, the IC50 in test [1] is 47 nM; in test [2] it was under 100 nM.
The matching figures for `Oc1ccc(C(O)CN2C[C@H]3C[C@H](Oc4ccc(F)cc4)C[C@H]3C2)cc1` (stereo partly drawn): 13 nM and under 100 nM.
In the same order, the values of `Oc1ccc(C(O)CN2C[C@H]3C[C@H](Oc4cncc(Cl)c4)C[C@H]3C2)cc1` (stereo partly drawn) are 493 nM and 100 to 1000 nM.
As for `O=C(CN1C[C@H]2C[C@H](Oc3ccc(F)cc3)C[C@H]2C1)c1cnn(Cc2ccccc2)c1`, the IC50 in test [1] was 10000 nM; in test [2], over 10000 nM.
The matching figures for `OC(CN1C[C@H]2C[C@H](Oc3ccc(F)cc3)C[C@H]2C1)c1cnn(Cc2ccccc2)c1` (stereo partly drawn): 10000 nM and over 10000 nM.
In the same order, the values of `O=C(CN1C[C@H]2C[C@@H](Oc3ccc(F)cc3)C[C@H]2C1)c1ccc(O)cc1` are 53.4 nM and under 100 nM.
As for `Oc1ccc(C(O)CN2C[C@H]3C[C@H](Oc4cccnc4)C[C@H]3C2)cc1` (stereo partly drawn), the values for the IC50 in test [1] and in test [2] were 94.6 nM and under 100 nM, respectively.
`O=C(CN1C[C@H]2C[C@H](Oc3ccc(F)cc3)C[C@H]2C1)c1ccc(O)c(F)n1`: the IC50 in test [1] is 10000 nM; in test [2], over 10000 nM.
In the same order, the values of `Cc1ccc(O[C@H]2C[C@@H]3CN(CC(=O)c4ccc(O)cc4)C[C@@H]3C2)cn1` are 84.5 nM and under 100 nM.
Turning to `N#Cc1ccc(O[C@H]2C[C@@H]3CN(CC(=O)c4ccc(O)cn4)C[C@@H]3C2)cc1`, the IC50 is 10000 nM in test [1] and over 10000 nM in test [2].
In the same order, the values of `N#Cc1ccc(O[C@H]2C[C@@H]3CN(CC(O)c4ccc(O)cn4)C[C@@H]3C2)cc1` (stereo partly drawn) are 18 nM and under 100 nM.
Take `N#Cc1ccc(O[C@H]2C[C@@H]3CN(CC(O)c4ccc(O)c(F)n4)C[C@@H]3C2)cc1` (stereo partly drawn): the figures for the IC50 in test [1] and in test [2] were 367 nM and 100 to 1000 nM, respectively.
On to `O=C(CN1C[C@H]2C[C@H](Oc3cccnc3)C[C@H]2C1)c1ccc(O)c(F)c1`, for which the IC50 was 434 nM in test [1] and 100 to 1000 nM in test [2].
As for `COc1ccc(O[C@H]2C[C@@H]3CN(CC(=O)c4ccc(O)cn4)C[C@@H]3C2)cc1`, the IC50 in test [1] is 10000 nM; in test [2], over 10000 nM.
With `COc1ccc(O[C@H]2C[C@@H]3CN(CC(=O)c4ccc(O)cc4)C[C@@H]3C2)cc1`, the values for the IC50 in test [1] and in test [2] were 46.4 nM and under 100 nM, respectively.
On to `COc1ccc(O[C@H]2C[C@@H]3CN(CC(=O)c4ccc(O)c(F)c4)C[C@@H]3C2)cc1`, for which the IC50 in test [1] is 102 nM; in test [2] it was 100 to 1000 nM.
The matching figures for `N#Cc1ccc(O[C@H]2C[C@@H]3CN(CC(=O)c4ccc(O)c(F)n4)C[C@@H]3C2)cc1`: 10000 nM and over 10000 nM.
For `N#Cc1ccc(O[C@H]2C[C@@H]3CN(CC(=O)c4ccc(O)cc4)C[C@@H]3C2)cc1`, the results for the IC50 in test [1] and in test [2] were 68.2 nM and under 100 nM, respectively.
Regarding `N#Cc1ccc(O[C@H]2C[C@@H]3CN(CC(O)c4ccc(O)cc4)C[C@@H]3C2)cc1` (stereo partly drawn), the IC50 in test [1] is 47.4 nM; in test [2], under 100 nM.
The matching figures for `Oc1ccc(C(O)CN2C[C@H]3C[C@H](Oc4cncc(F)c4)C[C@H]3C2)cc1` (stereo partly drawn): 267 nM and 100 to 1000 nM.
In the same order, the values of `Oc1ccc(C(O)CN2C[C@H]3C[C@H](Oc4cccnc4)C[C@H]3C2)cc1F` (stereo partly drawn) are 52.1 nM and under 100 nM.
In the same order, the values of `COc1cccc(O[C@H]2C[C@@H]3CN(CC(=O)c4ccc(O)cn4)C[C@@H]3C2)c1` are 10000 nM and over 10000 nM.
On to `Cc1ccc(O[C@H]2C[C@@H]3CN(CC(O)c4ccc(O)cc4)C[C@@H]3C2)cn1` (stereo partly drawn), for which the IC50 was 140 nM in test [1] and 100 to 1000 nM in test [2].
In the same order, the values of `COc1ccc(O[C@H]2C[C@@H]3CN(CC(=O)c4ccc(O)c(OC)n4)C[C@@H]3C2)cc1` are 10000 nM and over 10000 nM.
The matching figures for `COc1ccc(O[C@H]2C[C@@H]3CN(CC(O)c4ccc(O)c(OC)n4)C[C@@H]3C2)cc1` (stereo partly drawn): 1330 nM and 1000 to 10000 nM.
Consider `COc1ccc(O[C@H]2C[C@@H]3CN(CC(O)c4ccc(O)cn4)C[C@@H]3C2)cc1` (stereo partly drawn), for which the results for the IC50 in test [1] and in test [2] were 65.8 nM and under 100 nM, respectively.
For the molecule `COc1ccc(O[C@H]2C[C@@H]3CN(CC(O)c4ccc(O)c(F)c4)C[C@@H]3C2)cc1` (stereo partly drawn), the IC50 in test [1] is 41.5 nM; in test [2], under 100 nM.
The matching figures for `COc1ccc(O[C@H]2C[C@@H]3CN(CC(O)c4ccc(O)cc4)C[C@@H]3C2)cc1` (stereo partly drawn): 51.6 nM and under 100 nM.
In the same order, the values of `COc1cccc(O[C@H]2C[C@@H]3CN(CC(O)c4ccc(O)cn4)C[C@@H]3C2)c1` (stereo partly drawn) are 70.7 nM and under 100 nM.
On to `Oc1ccc(C(O)CN2C[C@H]3C[C@H](Oc4ccc(F)cc4)C[C@H]3C2)nc1F` (stereo partly drawn), for which the IC50 in test [1] is 30.2 nM; in test [2], under 100 nM.
For the molecule `O=C(CN1C[C@H]2C[C@@H](Oc3cc(F)cc(F)c3)C[C@H]2C1)c1ccc(O)cn1`, the figures for the IC50 in test [1] and in test [2] were 10000 nM and over 10000 nM, respectively.
In the same order, the values of `Oc1ccc(C(O)CN2C[C@H]3C[C@@H](Oc4cc(F)cc(F)c4)C[C@H]3C2)nc1` (stereo partly drawn) are 2920 nM and 1000 to 10000 nM.
`COc1ccc(O[C@@H]2C[C@@H]3CN(CC(=O)c4ccc(O)cc4)C[C@@H]3C2)cc1`: the figures for the IC50 in test [1] and in test [2] were 57.3 nM and under 100 nM, respectively.
In the same order, the values of `COc1ccc(O[C@@H]2C[C@@H]3CN(CC(=O)c4ccc(O)c(F)c4)C[C@@H]3C2)cc1` are 250 nM and 100 to 1000 nM.
The matching figures for `COc1ccc(O[C@@H]2C[C@@H]3CN(CC(O)c4ccc(O)c(F)c4)C[C@@H]3C2)cc1` (stereo partly drawn): 83.9 nM and under 100 nM.
Turning to `O=C(CN1C[C@H]2C[C@@H](Oc3ccc(F)cc3)C[C@H]2C1)c1ccc(O)c(F)c1`, the results for the IC50 in test [1] and in test [2] were 53.2 nM and under 100 nM, respectively.
As for `COc1ccc(S[C@H]2C[C@@H]3CN(CC(=O)c4ccc(O)cc4)C[C@@H]3C2)cc1`, the IC50 in test [1] is 230 nM; in test [2], 100 to 1000 nM.
In the same order, the values of `O=C(CN1C[C@H]2C[C@H](Sc3ccc(F)cc3)C[C@H]2C1)c1ccc(O)cc1` are 74 nM and under 100 nM.
In the same order, the values of `Oc1ccc(C(O)CN2C[C@H]3C[C@H](Sc4ccc(F)cc4)C[C@H]3C2)cc1` (stereo partly drawn) are 19.2 nM and under 100 nM.
Consider `COc1ccc(S[C@H]2C[C@@H]3CN(CC(O)c4ccc(O)cc4)C[C@@H]3C2)cc1` (stereo partly drawn), for which the IC50 was 113 nM in test [1] and 100 to 1000 nM in test [2].
Take `Oc1ccc(C(O)CN2C[C@H]3C[C@H](Sc4ccccc4F)C[C@H]3C2)nc1` (stereo partly drawn): the IC50 in test [1] is 20.6 nM; in test [2] it was under 100 nM.
The matching figures for `Oc1ccc([C@@H](O)CN2C[C@H]3C[C@H](Oc4ccccc4)C[C@H]3C2)nc1`: 5.25 nM and under 100 nM.
In the same order, the values of `Oc1ccc([C@H](O)CN2C[C@H]3C[C@H](Oc4ccccc4)C[C@H]3C2)nc1` are 5.24 nM and under 100 nM.
Take `Oc1ccc([C@@H](O)CN2C[C@H]3C[C@H](Oc4cccnc4F)C[C@H]3C2)nc1`: the IC50 is 20 nM in test [1] and under 100 nM in test [2].
Regarding `OC(CN1C[C@H]2C[C@H](Oc3ccc(F)cc3)C[C@H]2C1)c1cn[nH]c1` (stereo partly drawn) [drawing 256], the values for the IC50 in test [1] and in test [2] were 4890 nM and 1000 to 10000 nM, respectively.
